Read-outs that look alike come from different tables or passages of the source.
Key:
E. histolytica CS3 = E. histolytica CS3 (Entamoeba histolytica, UniProt Q401L7); assay: CS inhibitory activity, recombinant CS3; assay type: biochemical
E. histolytica CS1 = E. histolytica CS1 (Entamoeba histolytica, UniProt O15570); assay: CS inhibitory activity, recombinant CS1; assay type: biochemical
Method: Pencolide (5.5 mg) was dissolved in 1 ml of 0.25 M L-cysteine aqueous solution (L-cysteine HCl salt in H2O) and left at room temperature for overnight. The reaction mixture was purified by Seppak ODS (Waters co., Massachusetts, USA) and the cysteine adducts were eluted with 30%MeCN-70%H2O containing 0.1%TFA. The obtained fraction was further purified by preparative HPLC (column, Senshupak Pegasil ODS SP100, 20 φ × 250 mm, Senshu Scientific Co. Ltd.; solvent, 0.1%TFA-MeCN-H2O gradient system, 10–50% MeCN per 0–30 min; flow rate, 7.0 ml/min; detection, UV at 210 nm). […] The methanol solution of the obtained adducts was used for measurement of the CS1 inhibitory activity.

[1] = tested on: E. histolytica trophozoites; assay: In vitro antiamebic activity (WST-1), L-cysteine-deprived or L-cysteine-supplemented BI-S-33 medium; assay type: cell-based, Entamoeba histolytica; settings: for Anti-amebic activity Selectivity Cys(+)/Cys(–): ED50 Cys(+)/ED50 Cys(–), cysteine dependence index; for Anti-amebic activity ED50 Cys (+): L-cysteine (9 mM) supplemented BI-S-33 medium; for Anti-amebic activity ED50 Cys (+) / Anti-amebic activity ED50 Cys (–): 48 hrs; for Anti-amebic activity ED50 Cys (–): L-cysteine-deprived BI-S-33 medium; for IC50: Entamoeba histolytica
Method: Trophozoites were harvested in a logarithmic growth phase 3 or 4 days after inoculation of 1/30–1/12 volume of the seed culture. After the cultures were chilled on ice for 5 min, trophozoites were collected by centrifugation at 500 × g for 10 min at 4°C. The trophozoites were resuspended in BI-S-33 medium containing 1% (v/v) penicillin/streptomycin (Life Technologies, Grand Islands, NY, U.S.A.), with a final concentration of 5 × 10^4 cells/ml. […] The plates were incubated under anaerobic conditions with Anaeropak for 48 hrs. After incubation, the medium was removed and 90 μl of pre-warmed Opti-MEM I (Life Technologies) and 10 μl of WST-1 solution (Dojindo, Kumamoto, Japan) were added to each well. Optical absorbance at 450 nm was measured on a photospectrometer (SH-9000Lab, Corona Electric, Ibaraki, Japan). Metronidazole (Sigma-Aldrich, MO, USA) was used as positive control. Antiamebic assays were done in triplicate. […] The cysteine dependence of the antiamebic activities was calculated as ED 50Cys(+) /ED 50Cys(-) and expressed as “cysteine dependence index.”
Approximately 2 μl of the compound solution (1 mg/ml, in DMSO) of the Kitasato Natural Products Library or 10 μl of EtOH extracts of microbial culture broth extracts was added to each well of E. histolytica trophozoite-seeded 96-well microtiter plates (final concentrations, 10 μg/ml). Compounds showing more than 80% growth inhibition and having no cytotoxicity against MRC-5 cells were selected for further evaluation.

[2] = assay type: physicochemical; settings: 9 mM L-cysteine, 37°C, 2 days
Method: After mixing well with plate mixer for 3 min, the plate was incubated at 37°C axenically with Anaeropak (Mitsubishi Chemical, Tokyo, Japan) for 2 days. The reaction mixtures were evaluated by HPLC analysis (column, Senshupak Pegasil ODS SP100, 4.6 φ × 250 mm, Senshu Scientific Co. Ltd., Japan; solvent, MeCN-H2O gradient system, 10–90% MeCN per 0–30 min; flow rate, 1.0 ml/min; detection, UV at 210 nm) and LC-ESI-MS analysis (column, Capcellcore C18, 2.1 φ × 50 mm, Osaka soda, Japan; solvent, MeCN-H2O-0.1% HCO2H gradient system, 5–100% MeCN per 0–8 min, 100%MeCN per 8–10 min; flow rate, 0.4 ml/min; ESI-MS data was obtained by JEOL JMS-T100LP, JEOL, Japan).

EhCSs [3] = assay: EhCS inhibition, isotype not separated (both CSs / EhCS); assay type: biochemical, Entamoeba histolytica; settings: cytochalasans and cerulenin at 100 μg/ml
Description: Expression and purification of recombinant E. histolytica CS1 and CS3, and measurement of inhibitory activity against both enzymes were described previously (Mori et al., [2015]).

[4] = tested on: E. histolytica trophozoites; assay: In vitro antiamebic activity (WST-1), L-cysteine-deprived or L-cysteine-supplemented BI-S-33 medium; assay type: cell-based, Entamoeba histolytica; settings: Cys (–) medium, 2.5 mM pencolide
[5] = Cytotoxicity against MRC-5 cells (WST-8); assay type: cell-based, Human; settings: human, MRC-5 fibroblast cells; 2 days
Method: (§1) Human fibroblast cell line, MRC-5, was used for cytotoxicity evaluation. MRC-5 cells were plated on 96-well flat bottom plates at a density of 1.5 × 10^4 cells/well in 100 μl of MEM medium each well (Life Technologies) containing 10% fetal bovine serum (Hana-nesco Bio, Tokyo, Japan) and 1% penicillin-streptomycin (Life Technologies) and incubated at 37°C with 5% CO2 for 2 days. Test compounds in 5 μl of 50% DMSO and 50% H2O and 100 μl of MEM medium were mixed and added to each well. After cultivation at 37°C with 5% CO2 for 2 days, cell density and morphological changes were observed under a microscope. After observation, 10 μl of WST-8 solution (Dojindo) was added to the cells and the plate was incubated at 37°C with 5% CO2 for 2 h. Then, absorbance at 450 nm was measured as above. Cytotoxicity against MRC-5 cells was measured in triplicate. ED50 values were calculated as previously described (Arita-Morioka et al., [2015]).

MRC-5 cells [6] = assay: Cytotoxicity against MRC-5 cells (WST-8); assay type: cell-based, Human; settings: MRC-5 relative to E. histolytica in Cys (–)
Method: as §1

[7] = tested on: E. histolytica trophozoites; design: method as in Mori et al., 2015; settings: ref Mori et al., 2015, cited from earlier work
MRC-5 cells [8] = tested on: MRC-5 cells; design: method as in Mori et al., 2015; settings: strong cytotoxicity, times higher, ref Mori et al., 2015; cited from earlier work
EhCSs [9] = tested on: EhCSs; design: method as in Mori et al., 2015; settings: previous enzymatic screening, ref Mori et al., 2015; read-out: IC50 value against CSs; cited from earlier work
[10] = read-out: CS inhibitory activity IC50 CS3 (converted)
[11] = read-out: CS inhibitory activity IC50 CS1 (converted)

Chain of E. histolytica CS3 (Q401L7 entry or part of it): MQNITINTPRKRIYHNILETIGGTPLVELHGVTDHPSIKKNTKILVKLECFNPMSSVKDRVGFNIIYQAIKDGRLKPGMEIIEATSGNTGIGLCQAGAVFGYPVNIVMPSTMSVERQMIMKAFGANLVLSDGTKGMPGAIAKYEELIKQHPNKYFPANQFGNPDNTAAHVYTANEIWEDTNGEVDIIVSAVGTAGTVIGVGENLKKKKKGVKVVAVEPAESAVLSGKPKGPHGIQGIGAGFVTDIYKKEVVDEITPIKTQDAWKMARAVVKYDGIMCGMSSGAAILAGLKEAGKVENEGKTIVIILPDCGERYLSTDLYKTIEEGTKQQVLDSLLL
Chain of E. histolytica CS1 (O15570 entry or part of it): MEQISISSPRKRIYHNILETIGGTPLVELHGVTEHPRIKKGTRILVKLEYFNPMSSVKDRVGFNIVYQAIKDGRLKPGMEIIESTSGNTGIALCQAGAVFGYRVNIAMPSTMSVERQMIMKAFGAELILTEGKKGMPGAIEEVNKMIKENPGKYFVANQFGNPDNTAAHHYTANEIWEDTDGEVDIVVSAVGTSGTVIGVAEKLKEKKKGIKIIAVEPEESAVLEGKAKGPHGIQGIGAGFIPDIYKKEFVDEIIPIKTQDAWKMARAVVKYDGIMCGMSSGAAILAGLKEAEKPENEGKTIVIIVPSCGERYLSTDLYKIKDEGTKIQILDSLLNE

Row | Compound | IC50 (E. histolytica CS3) | IC50 (E. histolytica CS1) | Anti-amebic activity Selectivity Cys(+)/Cys(–) [1] | Anti-amebic activity ED50 Cys (+) [1] | Anti-amebic activity ED50 Cys (–) [1] | Stability in cysteine-supplemented water (HPLC) [2] | further results
1 | CC1=CC2C=C(C)C(C)C3C(CC(C)C)NC(=O)C23C(=O)C=CC(=O)C(O)CC1 (stereo not shown) [Aspochalasin B] | > 250 µM | > 250 µM | 3 | 27 µg/mL | 9.6 µg/mL |  | 
2 | C/C=C/C/C=C/CCC(=O)[C@H]1O[C@H]1C(N)=O [Cerulenin, reference compound] | > 448 µM | > 448 µM |  | 8.2 µg/mL | 1.1 µg/mL | relatively stable | Inhibitory activity toward both CS1 and CS3 (in words) (EhCSs [3]): neither three cytochalasans nor cerulenin showed the inhibitory activity
3 | C/C1=C\[C@@H](C)C/C=C/[C@H]2[C@@H]3O[C@]3(C)[C@@H](C)[C@H]3[C@H](Cc4c[nH]c5ccccc45)NC(=O)[C@]32C(=O)/C=C/C(=O)[C@@H]1O [Chaetoglobosin A] | > 189 µM | > 189 µM | >50 | >50 µg/mL | 1.0 µg/mL | totally lost | 
4 | CCC[C@H]1O[C@H](CC(=O)O)CC2=C1C(=O)c1c(O)cccc1C2=O [Deoxyfrenolicin] |  |  | 2 | 3.9 µg/mL | 1.7 µg/mL |  | IC50 (E. histolytica CS3; [10]): 75.7 µM; Inhibitory activity toward both CS1 and CS3 (in words) (EhCSs [3]): mild inhibition; IC50 (E. histolytica CS1; [11]): 72.7 µM
5 | C/C=C(\C(=O)O)N1C(=O)C=C(C)C1=O [Pencolide] |  |  |  |  |  | most of pencolide was changed to the cysteine adducts | Cell morphology under a light microscope [4]: apoptosis-like cell death; IC50 at 2 days [5]: 1900 µM; Selectivity MRC-5/Cys (–) (selectivity index) (MRC-5 cells [6]): 6.7; IC50 (E. histolytica CS3; [10]): 217 ± 25 µM; IC50 (E. histolytica CS1; [11]): 233 ± 19 µM; Selectivity Cys (+)/Cys (–) (cysteine dependence index) [1]: 7.6; IC50 ([1]; Cys (+) medium, read-out: Cytotoxicity IC50 Against Entamoeba histolytica in Cys (+)): 2140 µM; IC50 ([1]; Cys (–) medium, read-out: Cytotoxicity IC50 Against Entamoeba histolytica in Cys (–)): 283 ± 44 µM
6 | CC1=CC(C)CC=CC2C3OC3(C)C(C)C3C(Cc4c[nH]c5ccccc45)NC(=O)C23C(=O)C=CC(=O)C1 (stereo not shown) [Prochaetoglobosin III] | > 195 µM | > 195 µM | 17 | 44 µg/mL | 2.6 µg/mL | totally lost | 
7 | CCCCCCCCCc1cc(OC(=O)c2c(CCCCCCCCC)cc(O)cc2OC2OC(CO)C(O)C(O)C2O)cc(O)c1C(=O)O (stereo not shown) [exophillic acid] |  |  |  |  |  |  | Antiamebic activity in vitro [7]: did not show the antiamebic activity
8 | CC(=O)c1c(C)c(/C(O)=C2\COc3cc(O)c(O)c(C(=O)O)c3C2=O)cc2c(=O)c3c(C(=O)O)c(O)c(O)cc3oc12 [xanthofulvin] |  |  |  |  |  |  | Antiamebic activity in vitro [7]: did not show the antiamebic activity
9 | deacetylkinamycin C |  |  |  |  |  |  | Cytotoxicity against MRC-5 cells relative to antiamebic/CS activity (MRC-5 cells [8]): > 10 times; ED50 value against amebic trophozoites ([7]; previous study): ca. 20 μM; IC50 (EhCSs [9]): ~20 µM

— article PMC6290340, “Discovery of Antiamebic Compounds That Inhibit Cysteine Synthase From the Enteric Parasitic Protist Entamoeba histolytica by Screening of Microbial Secondary Metabolites” (Frontiers in Cellular and Infection Microbiology, 2018)
